# From patent publication US6428654B1, “Fungicidal method” (Hercules Incorporated, priority 2000, dated 2002)
# “And” between values parts separate entries of the source, which are not always exact repeats. Identical values can stand only once.
# Tested on: Aspergillus niger (ATCC 6275)
# Assay: Microtiter XTT growth inhibition assay
# Assay type: cell-based
# Conditions: 37° C. 24 hours, XTT read at 465 nm, duplicate plates (Plate 1, Plate 2)
# Procedure: Preparation of the Spore Inoculum—Two sterile petri dishes containing potato dextrose agar are inoculated with Aspergillus niger (ATCC 6275). The plates are incubated for at least 48 hours at 35+1 ° C. At the end of the incubation period, the plates are checked for mycelia and fruiting bodies of the fungus. To prepare the spore-mycelial suspension, the agar surface is scraped with a sterile cotton tip swab. The spores are suspended from the cotton swab in a sterile test tube containing a solution of 0.85% saline and 0.01% Tween 80 (v/v). The spore-mycelial suspension is shaken or vortexed to break up spore and mycelial clumps. Prior to the addition of the spore-mycelial suspension to the test tube containing saline and Tween, a spectrophotometer is set to 650 nm and the absorbance reading is balanced to zero. The optical density (absorbance) of the spore-mycelial suspension is measured in the spectrophotometer. If necessary, the optical density is adjusted to 0.29 absorbance units by addition of diluent or spores. At an optical density of 0.29 absorbance units (at 650 nm), the concentration of spores is 1×10^9 spores/ml. The spore-mycelial suspension is diluted 1/1000 to yield inoculum used for the microtiter assay, having a concentration of 1×10^6 spores/ml.
# Microtiter Assay—Six MULTISCREEN filtration plates (96-well MULTISCREEN-GV, clear plates with 0.22 μm membrane; Millipore Corp., Molsheim, France) are used for a three dose response protocol. This protocol and the six MULTISCREEN plates allows for duplication of the experimental results. The three actives employed are BAS49002F (kresoxim methyl at 50 wt %; BASF Corporation, Ludwigshafen, Germany), AF1912 (diiodomethyl-paratolylsulfone; Angus Chemical Company, Buffalo Grove, Ill.), and MBTC (methylenebisthiocyanate; Aldrich Chemical Company, Milwaukee, Wis.). These actives are individually diluted with water to a concentration of 40 ppm actives. Using separate dilution blocks for each active, the actives are serially diluted to reach experimental dose ranges from 10 to 0.156 ppm. Along with the treatments (actives), Sabouraud Dextrose broth (DIFCO Laboratories, Detroit Mich.) and inoculum are added to each well. The microtiter plates are incubated at 37° C. for 24 hours, and after this period a 0.1% solution of XTT (2,3-bis[2-methoxy-4-nitro-5-sulfophenyl]-2H-tetrazolium-5-carboxanilide; Sigma Chemical, Saint Louis, Mo.) and 0.01% of PMS (phenazine methosulfate; Sigma Chemical, Saint Louis, Mo.) are added to each well. The plates are incubated for approximately 3 more hours. Filtration via the MULTISCREEN plates removes the mycelial growth and nonvegetated spores of Aspergillus niger. Each microtiter well is read at 465 nm for the reduction of XTT by metabolically active cells (i.e., a color change from the untreated controls would indicate respiring fungal cells). Growth inhibition results are presented in Table 2, which represents the processed absorbance data that has been converted as a percent inhibition of fungal growth by the three actives tested (BAS49002F, AF1912, and MBTC). The dashed lines in Table 2 indicate negative inhibition values, which indicate that cells were viable, but in futile cell cycles.
smiles,measurement,setting,value
"N#CSCSC#N [MBTC, methylenebisthiocyanate]",percent inhibition of fungal growth,0.156 ppm actives,"— (The dashed lines in Table 2 indicate negative inhibition values, which indicate that cells were viable, but in futile cell cycles)"
same,percent inhibition of fungal growth,0.31 ppm actives,"— (The dashed lines in Table 2 indicate negative inhibition values, which indicate that cells were viable, but in futile cell cycles)"
same,percent inhibition of fungal growth,0.625 ppm actives,"— (The dashed lines in Table 2 indicate negative inhibition values, which indicate that cells were viable, but in futile cell cycles)"
same,percent inhibition of fungal growth,1.25 ppm actives,"— (The dashed lines in Table 2 indicate negative inhibition values, which indicate that cells were viable, but in futile cell cycles)"
same,percent inhibition of fungal growth,2.5 ppm actives,86% and 84%
same,percent inhibition of fungal growth,5.0 ppm actives,88% and 89%
same,percent inhibition of fungal growth,10.0 ppm actives,88% and 89%
